From ChEMBL document CHEMBL1909046, “DrugMatrix in vitro pharmacology data”

Assays:
Vasopressin V1a receptor = Vasopressin V1a receptor (Homo sapiens, UniProt P37288); format: cell membranes, Membrane; details: hek293; further: in other assays of this panel Not Active means under 50% inhibition at 10 µM
[1] = target: T1, C-X-C chemokine receptor type 2 (Homo sapiens, UniProt P25025); format: cell membranes, Membrane; details: cho-k1; further: in other assays of this panel Not Active means under 50% inhibition at 10 µM
T1 sequence (P25025 whole entry): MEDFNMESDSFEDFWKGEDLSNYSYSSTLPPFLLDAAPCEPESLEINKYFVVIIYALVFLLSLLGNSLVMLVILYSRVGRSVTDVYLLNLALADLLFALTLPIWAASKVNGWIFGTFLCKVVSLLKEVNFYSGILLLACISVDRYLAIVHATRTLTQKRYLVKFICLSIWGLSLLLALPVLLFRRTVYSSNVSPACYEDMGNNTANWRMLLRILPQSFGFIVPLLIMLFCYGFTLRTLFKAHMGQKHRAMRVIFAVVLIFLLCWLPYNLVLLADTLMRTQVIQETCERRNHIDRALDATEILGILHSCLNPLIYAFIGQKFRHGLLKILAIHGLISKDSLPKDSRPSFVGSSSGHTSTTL

[2] = target: T2, Cholecystokinin receptor type A (Homo sapiens, UniProt P32238); format: cell membranes, Membrane; details: 1321-n1; further: in other assays of this panel Not Active means under 50% inhibition at 10 µM
T2 sequence (P32238 whole entry): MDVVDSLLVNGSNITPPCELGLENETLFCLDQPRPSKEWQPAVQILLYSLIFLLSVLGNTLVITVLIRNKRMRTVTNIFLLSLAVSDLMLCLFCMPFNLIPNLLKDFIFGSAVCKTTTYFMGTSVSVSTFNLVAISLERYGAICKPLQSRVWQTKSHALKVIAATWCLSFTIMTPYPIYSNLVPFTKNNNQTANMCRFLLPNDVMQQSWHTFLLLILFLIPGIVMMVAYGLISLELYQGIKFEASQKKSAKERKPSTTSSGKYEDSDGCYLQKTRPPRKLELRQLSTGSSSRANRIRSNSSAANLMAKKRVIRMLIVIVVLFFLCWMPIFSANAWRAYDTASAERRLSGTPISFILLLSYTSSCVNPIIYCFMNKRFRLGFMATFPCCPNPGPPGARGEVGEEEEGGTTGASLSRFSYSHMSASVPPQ

Endothelin-1 receptor = target: T3, Endothelin-1 receptor (Homo sapiens, UniProt P25101); format: cell membranes, Membrane; details: cho-k1; further: in other assays of this panel Not Active means under 50% inhibition at 10 µM
T3 sequence (P25101 whole entry): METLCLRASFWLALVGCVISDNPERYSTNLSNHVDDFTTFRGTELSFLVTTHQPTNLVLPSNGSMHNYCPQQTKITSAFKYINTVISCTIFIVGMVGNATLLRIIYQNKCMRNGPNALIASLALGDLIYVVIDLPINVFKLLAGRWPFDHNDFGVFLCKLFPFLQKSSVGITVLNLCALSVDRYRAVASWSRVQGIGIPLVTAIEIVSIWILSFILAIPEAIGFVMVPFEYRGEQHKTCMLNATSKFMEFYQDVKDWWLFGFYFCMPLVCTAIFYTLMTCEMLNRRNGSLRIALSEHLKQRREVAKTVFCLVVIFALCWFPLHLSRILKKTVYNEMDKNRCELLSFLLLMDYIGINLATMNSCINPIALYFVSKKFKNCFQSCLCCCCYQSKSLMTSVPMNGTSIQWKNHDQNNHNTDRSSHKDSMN

Mu-type opioid receptor = Mu-type opioid receptor (Homo sapiens, UniProt P35372); test: DRUGMATRIX: Opiate mu (OP3, MOP) radioligand binding (ligand: [3H] Diprenorphine); format: cell membranes, CHO-K1, Membrane; details: cho-k1; Not Active = under 50% inhibition at 10 µM
Mu-type opioid receptor, sequence (P35372 whole entry): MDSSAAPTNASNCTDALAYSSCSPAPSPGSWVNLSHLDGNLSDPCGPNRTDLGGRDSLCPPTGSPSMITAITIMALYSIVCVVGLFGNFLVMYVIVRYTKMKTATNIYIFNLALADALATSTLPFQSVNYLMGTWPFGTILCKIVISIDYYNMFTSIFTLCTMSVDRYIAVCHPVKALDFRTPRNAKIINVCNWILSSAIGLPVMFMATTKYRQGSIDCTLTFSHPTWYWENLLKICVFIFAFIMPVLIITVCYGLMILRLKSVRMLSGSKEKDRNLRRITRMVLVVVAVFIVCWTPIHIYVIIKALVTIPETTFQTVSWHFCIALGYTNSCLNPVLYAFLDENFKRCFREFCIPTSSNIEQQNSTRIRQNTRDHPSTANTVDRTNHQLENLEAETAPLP

[3] = DRUGMATRIX: Phosphodiesterase PDE4 enzyme inhibition (substrate: [3H]cAMP + cAMP); details: u-937; Not Active = under 50% inhibition at 10 µM
[4] = target: T4, Angiotensin-converting enzyme (Oryctolagus cuniculus, UniProt P12822); test: biochemical; format: tissue-based, Lung
T4 sequence (P12822 whole entry): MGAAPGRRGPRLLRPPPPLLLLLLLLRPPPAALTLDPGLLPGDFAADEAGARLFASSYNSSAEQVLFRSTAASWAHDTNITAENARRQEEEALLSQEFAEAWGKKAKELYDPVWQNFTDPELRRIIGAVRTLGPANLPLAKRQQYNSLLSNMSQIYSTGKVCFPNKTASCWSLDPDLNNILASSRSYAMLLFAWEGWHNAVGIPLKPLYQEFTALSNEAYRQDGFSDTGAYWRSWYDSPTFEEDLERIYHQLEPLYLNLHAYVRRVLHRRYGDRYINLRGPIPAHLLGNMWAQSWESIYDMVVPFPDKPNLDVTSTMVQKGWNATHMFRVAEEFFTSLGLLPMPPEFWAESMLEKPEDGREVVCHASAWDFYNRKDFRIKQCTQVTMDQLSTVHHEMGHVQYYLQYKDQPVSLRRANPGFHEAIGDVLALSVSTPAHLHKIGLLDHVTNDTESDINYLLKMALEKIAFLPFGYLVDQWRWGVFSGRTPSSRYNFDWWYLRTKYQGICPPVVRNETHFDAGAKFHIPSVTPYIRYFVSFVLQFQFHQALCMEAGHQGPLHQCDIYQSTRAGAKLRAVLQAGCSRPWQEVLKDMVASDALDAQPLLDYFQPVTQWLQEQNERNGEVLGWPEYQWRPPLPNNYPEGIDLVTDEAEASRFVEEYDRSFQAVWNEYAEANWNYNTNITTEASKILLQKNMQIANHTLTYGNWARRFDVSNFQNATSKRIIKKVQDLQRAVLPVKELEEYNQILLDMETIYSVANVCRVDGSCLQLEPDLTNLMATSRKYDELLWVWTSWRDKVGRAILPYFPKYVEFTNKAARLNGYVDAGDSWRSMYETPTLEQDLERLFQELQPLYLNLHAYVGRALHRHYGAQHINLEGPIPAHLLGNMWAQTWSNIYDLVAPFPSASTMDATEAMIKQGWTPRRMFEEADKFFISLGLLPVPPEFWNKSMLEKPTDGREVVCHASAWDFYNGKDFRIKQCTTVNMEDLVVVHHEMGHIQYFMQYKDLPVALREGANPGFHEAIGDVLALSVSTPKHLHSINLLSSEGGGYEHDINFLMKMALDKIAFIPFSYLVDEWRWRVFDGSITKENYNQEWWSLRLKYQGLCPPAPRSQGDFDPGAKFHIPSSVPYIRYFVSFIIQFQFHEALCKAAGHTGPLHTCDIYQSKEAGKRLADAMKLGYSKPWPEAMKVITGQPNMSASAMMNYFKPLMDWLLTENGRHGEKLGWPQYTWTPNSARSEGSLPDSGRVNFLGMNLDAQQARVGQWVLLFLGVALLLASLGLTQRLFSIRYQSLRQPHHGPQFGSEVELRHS

Vasopressin V1a receptor, sequence (P37288 whole entry): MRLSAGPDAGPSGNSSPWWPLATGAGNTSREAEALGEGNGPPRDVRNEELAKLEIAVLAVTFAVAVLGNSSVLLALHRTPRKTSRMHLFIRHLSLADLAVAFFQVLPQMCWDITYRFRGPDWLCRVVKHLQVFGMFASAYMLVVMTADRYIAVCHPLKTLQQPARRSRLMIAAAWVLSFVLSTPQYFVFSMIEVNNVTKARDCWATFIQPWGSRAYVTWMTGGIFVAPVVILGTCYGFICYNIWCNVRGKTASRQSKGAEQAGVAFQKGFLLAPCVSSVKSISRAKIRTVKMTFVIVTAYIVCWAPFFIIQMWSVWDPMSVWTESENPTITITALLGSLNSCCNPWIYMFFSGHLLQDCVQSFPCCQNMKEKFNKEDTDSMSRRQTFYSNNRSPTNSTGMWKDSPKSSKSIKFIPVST

C=C1CC[C@H](O)C/C1=C/C=C1\CCC[C@]2(C)[C@@H]([C@H](C)/C=C/[C@H](C)C(C)C)CC[C@@H]12 [ERGOCALCIFEROL]
Not Active: IC50 (Vasopressin V1a receptor) | IC50 [1] | IC50 [2] | IC50 (Endothelin-1 receptor) | IC50 (Mu-type opioid receptor) | IC50 [3] | Ki [3] | IC50 [4]

CCc1cccc2c3c([nH]c12)C(CC)(CC(=O)O)OCC3 (stereo not drawn) [ETODOLAC]
Not Active: IC50 (Vasopressin V1a receptor) | IC50 [1] | IC50 [2] | IC50 (Endothelin-1 receptor) | IC50 (Mu-type opioid receptor) | IC50 [3] | Ki [3] | IC50 [4]

Cc1c(-c2ccccc2)oc2c(C(=O)OCCN3CCCCC3)cccc2c1=O [FLAVOXATE]
Not Active: IC50 (Vasopressin V1a receptor) | IC50 [1] | IC50 [2] | IC50 (Endothelin-1 receptor) | IC50 (Mu-type opioid receptor) | IC50 [3] | Ki [3] | IC50 [4]

Nc1nc(=O)[nH]cc1F [FLUCYTOSINE]
Not Active: IC50 (Vasopressin V1a receptor) | IC50 [1] | IC50 [2] | IC50 (Endothelin-1 receptor) | IC50 (Mu-type opioid receptor) | IC50 [3] | Ki [3] | IC50 [4]

O=C1OC2(c3ccc(O)cc3Oc3cc(O)ccc32)c2ccccc21 [FLUORESCEIN]
Not Active: IC50 (Vasopressin V1a receptor) | IC50 [1] | IC50 [2] | IC50 (Endothelin-1 receptor) | IC50 (Mu-type opioid receptor) | IC50 [3] | Ki [3] | IC50 [4]

CC(=O)[C@@]1(O)CC[C@H]2[C@@H]3C[C@H](C)C4=CC(=O)C=C[C@]4(C)[C@@]3(F)[C@@H](O)C[C@@]21C [FLUOROMETHOLONE]
Not Active: IC50 (Vasopressin V1a receptor) | IC50 [1] | IC50 [2] | IC50 (Endothelin-1 receptor) | IC50 (Mu-type opioid receptor) | IC50 [3] | Ki [3] | IC50 [4]

O=c1[nH]cc(F)c(=O)[nH]1 [FLUOROURACIL]
Not Active: IC50 (Vasopressin V1a receptor) | IC50 [1] | IC50 [2] | IC50 (Endothelin-1 receptor) | IC50 (Mu-type opioid receptor) | IC50 [3] | Ki [3] | IC50 [4]

CC(C)n1c(/C=C/C(O)CC(O)CC(=O)O)c(-c2ccc(F)cc2)c2ccccc21 (stereo not drawn) [FLUVASTATIN]
Not Active: IC50 (Vasopressin V1a receptor) | IC50 [1] | IC50 [2] | IC50 (Endothelin-1 receptor) | IC50 (Mu-type opioid receptor) | IC50 [3] | Ki [3] | IC50 [4]

O=C1OCCN1/N=C/c1ccc([N+](=O)[O-])o1 [FURAZOLIDONE]
Not Active: IC50 (Vasopressin V1a receptor) | IC50 [1] | IC50 [2] | IC50 (Endothelin-1 receptor) | IC50 (Mu-type opioid receptor) | IC50 [3] | Ki [3] | IC50 [4]

NCC1(CC(=O)O)CCCCC1 [GABAPENTIN]
Not Active: IC50 (Vasopressin V1a receptor) | IC50 [1] | IC50 [2] | IC50 (Endothelin-1 receptor) | IC50 (Mu-type opioid receptor) | IC50 [3] | Ki [3] | IC50 [4]

CC[N+](CC)(CC)CCOc1cccc(OCC[N+](CC)(CC)CC)c1OCC[N+](CC)(CC)CC.[I-].[I-].[I-] [GALLAMINE TRIETHIODIDE]
Not Active: IC50 (Vasopressin V1a receptor) | IC50 [1] | IC50 [2] | IC50 (Endothelin-1 receptor) | IC50 (Mu-type opioid receptor) | IC50 [3] | Ki [3] | IC50 [4]
